Experimental data reported in paper PMC4182301, “Design, synthesis and SAR exploration of tri-substituted 1,2,4-triazoles as inhibitors of the annexin A2–S100A10 protein interaction” (Bioorganic & Medicinal Chemistry, 2014).
Like-named read-outs stand apart in the source and are kept apart here.

Biological target: interaction between the AnxA2 N-terminus and S100A10 (Homo sapiens, UniProt P60903)
Assay: Fluorescence screening assay (FRET competitive binding, Cy3-AnxA2(Ac1–14) peptide / Cy5-S100A10)
Details: for IC50 / pIC50 ± SE: FRET assay, 12 observations
Method: Assessment of compound activity was performed as described.[35] Briefly, a Cy5-labelled S100A10 tracer was developed and binding of a Cy3-labelled AnxA2(Ac1–14) peptide ligand was assessed using a fluorescence resonance energy transfer readout. Assays were carried out in Nunc black non-treated 384-well plates at 20 °C in 50 μL buffer C. All incubations were performed in quadruplicate. Compounds, peptide and buffer controls were added to the wells in a 10 μL volume in 5% DMSO. Cy5-labelled S100A10 tracer (407 nM) and Cy3-labelled AnxA2(Ac1–14) peptide ligand (1.33 μM) were pre-incubated for 5 min at 20 °C and 40 μL of the preformed complex was then added to the wells and mixed for 10 s to yield a final DMSO concentration of 1%. After 5 min incubation at 20 °C, readings were taken on a Perkin Elmer Envision plate reader by excitation at 488 nm and emission at 695 nm. Fluorescence resonance energy transfer (FRET) was calculated by subtracting the sum of the fluorescence emission of S100A10-Cy5 and AA2(1–14)-Cy3 individually from that measured for the co-incubated partners. Compound binding was calculated as percentage of non-treated control and data were analysed by non-linear regression (dose response—variable slope with bottom and top parameters fixed at 0% and 100%, respectively) using Graphpad Prism Software to determine the IC50 of binding (primary assay).

[1] = Table 1, read-out: pIC50 ± SE (converted)

interaction between the AnxA2 N-terminus and S100A10, sequence (P60903 whole entry, species assumed): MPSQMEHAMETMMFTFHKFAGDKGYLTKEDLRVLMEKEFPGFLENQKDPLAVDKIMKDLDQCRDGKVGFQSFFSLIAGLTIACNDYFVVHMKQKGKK

| IC50 (Table 1, read-out: IC50) [µM] | pIC50 ± SE (Table 1) | pIC50 ± SE (Table 2) | IC50 (Table 2, read-out: IC50) [µM] | SMILES | other results |
| --- | --- | --- | --- | --- | --- |
| 37 |  |  |  | Cc1ccc(C)c(NC(=O)CSc2nnc(CSc3nc(C)cc(C)n3)n2Cc2ccco2)c1 [Compound 1a, N-(2,5-Dimethyl-phenyl)-2-[5-(4,6-dimethyl-pyrimidin-2-ylsulfanylmethyl)-4-furan-2-ylmethyl-4H-[1,2,4]triazol-3-ylsulfanyl]-acetamide] | IC50 [1]: 38 µM |
| 53 |  |  |  | Cc1nnc(NC(=O)CSc2nnc(Cc3ccccc3)n2Cc2ccccc2)s1 [Compound 1b] |  |
| 108 |  |  |  | COc1ccc(OCc2nnc(SC(C)C(=O)Nc3nccs3)n2-c2ccccc2)cc1 (stereo not drawn) [Compound 1c] | IC50 [1]: 110 µM |
| 103 |  |  |  | CCCCn1c(SCC(=O)Nc2cccc(C)n2)nnc1-c1ccco1 [Compound 1d] | IC50 [1]: 105 µM |
| 178 | 3.75 ± 0.15 |  |  | Cc1cc(C)nc(SCc2nnc(SCC(N)=O)n2Cc2ccco2)n1 [Compound 27, 2-[5-(4,6-Dimethyl-pyrimidin-2-ylsulfanylmethyl)-4-furan-2-ylmethyl-4H-[1,2,4]triazol-3-ylsulfanyl]-acetamide] |  |
| 129 | 3.89 ± 0.06 |  |  | Cc1cc(C)nc(SCc2nnc(SCC(=O)Nc3nccs3)n2Cc2ccco2)n1 [Compound 28, 2-[5-(4,6-Dimethyl-pyrimidin-2-ylsulfanylmethyl)-4-furan-2-ylmethyl-4H-[1,2,4]triazol-3-ylsulfanyl]-N-thiazol-2-yl-acetamide] |  |
| 30 | 4.53 ± 0.06 |  |  | Cc1cc(C)nc(SCc2nnc(SCC(=O)Nc3nc(C)cs3)n2Cc2ccco2)n1 [Compound 29, 2-[5-(4,6-Dimethyl-pyrimidin-2-ylsulfanylmethyl)-4-furan-2-ylmethyl-4H-[1,2,4]triazol-3-ylsulfanyl]-N-(4-methyl-thiazol-2-yl)-acetamide] |  |
| 43 | 4.37 ± 0.07 |  |  | Cc1cc(C)nc(SCc2nnc(SCC(=O)Nc3cc(C)on3)n2Cc2ccco2)n1 [Compound 30, 2-[5-(4,6-Dimethyl-pyrimidin-2-ylsulfanylmethyl)-4-furan-2-ylmethyl-4H-[1,2,4]triazol-3-ylsulfanyl]-N-(5-methyl-isoxazol-3-yl)-acetamide] |  |
| 23 | 4.63 ± 0.04 |  |  | Cc1cc(C)nc(SCc2nnc(SCC(=O)Nc3ccccc3)n2Cc2ccco2)n1 [Compound 31, 2-[5-(4,6-Dimethyl-pyrimidin-2-ylsulfanylmethyl)-4-furan-2-ylmethyl-4H-[1,2,4]triazol-3-ylsulfanyl]-N-phenyl-acetamide] |  |
| 13 | 4.89 ± 0.04 |  |  | Cc1cccc(NC(=O)CSc2nnc(CSc3nc(C)cc(C)n3)n2Cc2ccco2)c1 [Compound 32, 2-[5-(4,6-Dimethyl-pyrimidin-2-ylsulfanylmethyl)-4-furan-2-ylmethyl-4H-[1,2,4]triazol-3-ylsulfanyl]-N-m-tolyl-acetamide] |  |
| 11 | 4.96 ± 0.04 |  |  | Cc1ccc(NC(=O)CSc2nnc(CSc3nc(C)cc(C)n3)n2Cc2ccco2)cc1 [Compound 33, 2-[5-(4,6-Dimethyl-pyrimidin-2-ylsulfanylmethyl)-4-furan-2-ylmethyl-4H-[1,2,4]triazol-3-ylsulfanyl]-N-p-tolyl-acetamide] |  |
| 15 | 4.83 ± 0.04 |  |  | Cc1ccc(NC(=O)CSc2nnc(CSc3nc(C)cc(C)n3)n2Cc2ccco2)c(C)c1 [Compound 34, N-(2,4-Dimethyl-phenyl)-2-[5-(4,6-dimethyl-pyrimidin-2-ylsulfanylmethyl)-4-furan-2-ylmethyl-4H-[1,2,4]triazol-3-ylsulfanyl]-acetamide] |  |
| 10 | 5.02 ± 0.04 |  |  | Cc1cc(C)nc(SCc2nnc(SCC(=O)Nc3ccc(C)c(C)c3)n2Cc2ccco2)n1 [Compound 35, N-(3,4-Dimethyl-phenyl)-2-[5-(4,6-dimethyl-pyrimidin-2-ylsulfanylmethyl)-4-furan-2-ylmethyl-4H-[1,2,4]triazol-3-ylsulfanyl]-acetamide] |  |
| 28 | 4.55 ± 0.07 |  |  | Cc1cc(C)nc(SCc2nnc(SCC(=O)Nc3ccc(C(F)(F)F)cc3)n2Cc2ccco2)n1 [Compound 37, 2-[5-(4,6-Dimethyl-pyrimidin-2-ylsulfanylmethyl)-4-furan-2-ylmethyl-4H-[1,2,4]triazol-3-ylsulfanyl]-N-(4-trifluoromethyl-phenyl)-acetamide] |  |
| 9 | 5.05 ± 0.03 |  |  | Cc1cc(C)nc(SCc2nnc(SCC(=O)Nc3cc(C(F)(F)F)cc(C(F)(F)F)c3)n2Cc2ccco2)n1 [Compound 38, N-(3,5-Bis-trifluoromethyl-phenyl)-2-[5-(4,6-dimethyl-pyrimidin-2-ylsulfanylmethyl)-4-furan-2-ylmethyl-4H-[1,2,4]triazol-3-ylsulfanyl]-acetamide] |  |
| 17 | 4.76 ± 0.03 |  |  | Cc1cc(C)nc(SCc2nnc(SCC(=O)Nc3ccc(Cl)cc3)n2Cc2ccco2)n1 [Compound 39, N-(4-Chloro-phenyl)-2-[5-(4,6-dimethyl-pyrimidin-2-ylsulfanylmethyl)-4-furan-2-ylmethyl-4H-[1,2,4]triazol-3-ylsulfanyl]-acetamide] |  |
| 7 | 5.14 ± 0.03 |  |  | Cc1cc(C)nc(SCc2nnc(SCC(=O)Nc3ccc(Br)cc3)n2Cc2ccco2)n1 [Compound 40, N-(4-Bromo-phenyl)-2-[5-(4,6-dimethyl-pyrimidin-2-ylsulfanylmethyl)-4-furan-2-ylmethyl-4H-[1,2,4]triazol-3-ylsulfanyl]-acetamide] | fold increase in potency compared to initial hit compound 1a (relative to 1a): 5 fold |
|  |  | 4.56 ± 0.03 | 27 | C=CCn1c(CSc2nc(C)cc(C)n2)nnc1SCC(=O)Nc1ccc(C)c(C)c1 [Compound 41, 2-[4-Allyl-5-(4,6-dimethyl-pyrimidin-2-ylsulfanylmethyl)-4H-[1,2,4]triazol-3-ylsulfanyl]-N-(3,4-dimethyl-phenyl)-acetamide] |  |
|  |  | 4.49 ± 0.04 | 32 | COCCCn1c(CSc2nc(C)cc(C)n2)nnc1SCC(=O)Nc1ccc(C)c(C)c1 [Compound 42, N-(3,4-Dimethyl-phenyl)-2-[5-(4,6-dimethyl-pyrimidin-2-ylsulfanylmethyl)-4-(3-methoxy-propyl)-4H-[1,2,4]triazol-3-ylsulfanyl]-acetamide] |  |
|  |  | 4.29 ± 0.09 | 52 | COc1ccc(-n2c(CSc3nc(C)cc(C)n3)nnc2SCC(=O)Nc2ccc(C)c(C)c2)cc1 [Compound 43, N-(3,4-Dimethyl-phenyl)-2-[5-(4,6-dimethyl-pyrimidin-2-ylsulfanylmethyl)-4-(4-methoxy-phenyl)-4H-[1,2,4]triazol-3-ylsulfanyl]-acetamide] |  |
|  |  | 4.23 ± 0.08 | 59 | Cc1cc(C)nc(SCc2nnc(SCC(=O)Nc3ccc(C)c(C)c3)n2-c2ccc(Cl)cc2)n1 [Compound 44, 2-[4-(4-Chloro-phenyl)-5-(4,6-dimethyl-pyrimidin-2-ylsulfanylmethyl)-4H-[1,2,4]triazol-3-ylsulfanyl]-N-(3,4-dimethyl-phenyl)-acetamide] |  |
|  |  | 4.62 ± 0.03 | 24 | Cc1cc(C)nc(SCc2nnc(SCCC(=O)Nc3ccc(C)c(C)c3)n2Cc2ccco2)n1 [Compound 45, N-(3,4-Dimethyl-phenyl)-3-[5-(4,6-dimethyl-pyrimidin-2-ylsulfanylmethyl)-4-furan-2-ylmethyl-4H-[1,2,4]triazol-3-ylsulfanyl]-propionamide] |  |
|  |  | 5.01 ± 0.03 | 10 | C=CCn1c(CSc2nc(C)cc(C)n2)nnc1SCC(=O)Nc1ccc(C(C)C)cc1 [Compound 46, 2-[4-Allyl-5-(4,6-dimethyl-pyrimidin-2-ylsulfanylmethyl)-4H-[1,2,4]triazol-3-ylsulfanyl]-N-(4-isopropyl-phenyl)-acetamide] |  |
|  |  | 5.13 ± 0.04 | 7 | COCCCn1c(CSc2nc(C)cc(C)n2)nnc1SCC(=O)Nc1ccc(C(C)C)cc1 [Compound 47, 2-[5-(4,6-Dimethyl-pyrimidin-2-ylsulfanylmethyl)-4-(3-methoxy-propyl)-4H-[1,2,4]triazol-3-ylsulfanyl]-N-(4-isopropyl-phenyl)-acetamide] |  |
|  |  | 4.82 ± 0.02 | 15 | COc1ccc(-n2c(CSc3nc(C)cc(C)n3)nnc2SCC(=O)Nc2ccc(C(C)C)cc2)cc1 [Compound 48, 2-[5-(4,6-Dimethyl-pyrimidin-2-ylsulfanylmethyl)-4-(4-methoxy-phenyl)-4H-[1,2,4]triazol-3-ylsulfanyl]-N-(4-isopropyl-phenyl)-acetamide] |  |
|  |  | 4.58 ± 0.04 | 27 | Cc1cc(C)nc(SCc2nnc(SCC(=O)Nc3ccc(C(C)C)cc3)n2-c2ccc(Cl)cc2)n1 [Compound 49, 2-[4-(4-Chloro-phenyl)-5-(4,6-dimethyl-pyrimidin-2-ylsulfanylmethyl)-4H-[1,2,4]triazol-3-ylsulfanyl]-N-(4-isopropyl-phenyl)-acetamide] |  |
|  |  | 5.08 ± 0.04 | 8 | C=CCn1c(CSc2nc(C)cc(C)n2)nnc1SCC(=O)Nc1ccc(C(F)(F)F)cc1 [Compound 50, 2-[4-Allyl-5-(4,6-dimethyl-pyrimidin-2-ylsulfanylmethyl)-4H-[1,2,4]triazol-3-ylsulfanyl]-N-(4-trifluoromethyl-phenyl)-acetamide] |  |
